In assay [1] the test system is solid tumours. Conditions: cited from earlier work.
For assay [2], the system named is colorectal tumors. Conditions: cited from earlier work.
For assay [3], the system named is solid tumors of stage IV metastatic colorectal cancer. The experiment in a line: Treatment of patients diagnosed with stage IV metastatic colorectal cancer with bevacizumab, oxaliplatin, 5-FU and 6R-MTHF; CT measurement of lesions, RECIST 1.1. Format: in vivo, human.
From the text: The ORR may be calculated as follows: ORR=sum of partial responses plus complete responses as per RECIST 1.1 (a set of published rules that define when tumours in cancer patients progress during treatments)([Eisenhauer E A, Therasse P, Bogaerts J, Schwartz L H, Sargent D, Ford R, et al. New response evaluation criteria in solid tumours: revised RECIST guideline (version 1.1). Eur J Cancer. 2009 January; 45(2):228-47; incorporated by reference in its entirety]. As defined herein, a “complete response (CR)” means the disappearance of all target lesions. Any pathological lymph nodes (whether target or non-target) must have reduction in short axis to <10 mm. As used herein, a “partial response (PR)” means at least a 30% decrease in the sum of diameters of target lesions, taking as reference the baseline sum diameters.As used herein, “progressive disease (PD)” means at least a 20% increase in the sum of diameters of target lesions, taking as reference the smallest sum on study (this includes the baseline sum if that is the smallest on study). […] The appearance of one or more new lesions is also considered progression.
(§1) Bevacizumab was administered at a dose of 5 mg/kg by intravenous infusion over 30 to 90 minutes. Following administration of bevacizumab, oxaliplatin was administered at a dose of 85 mg/m^2 by intravenous infusion between 15 and 120 minutes. Following oxaliplatin administration, 5-fluorouracil (5-FU) at a dose of 400 mg/m^2 was administered by intravenous bolus within 5 minutes. Thirty minutes after administration of the 5-FU intravenous bolus, 6R-MTHF at a dose of 60 mg/m^2 was administered by intravenous bolus (completed within 3 minutes). About 5 minutes after completion of the 6R-MTHF intravenous bolus administration, an intravenous infusion of 5-FU at a dose of 2,400 mg/m^2 was initiated. The infusion was paused to administer an intravenous bolus of 6R-MTHF at a dose of 60 mg/m^2 (completed within 3 minutes). The 5-FU infusion was maintained for 46 hours.
as §1, §1

Assay [4] relates to metastatic colorectal cancer. Conditions: Phase II trial, previously untreated metastatic colorectal cancer; cited from earlier work.
Assay [5] has as its system pancreas cancer. Conditions: CoFactor combined with 5-FU, phase I/II; cited from earlier work.
Assay [6] concerns colorectal cancer. Conditions: Phase IIb study; cited from earlier work.

Counter-ions that a name gives are not always drawn. Like-named read-outs stand apart in the source and are kept apart here.

Consider `O=c1[nH]cc(F)c(=O)[nH]1` [5-FU, 5-fluorouracil], for which, in assay [1] (5-FU alone), the overall response rate is reported as 10-15%. Besides, the response rate result in assay [2] (5-FU given as a monotherapy) is listed as “around 10%”.

In the case of `Nc1nc2c(c(=O)[nH]1)N(C=O)C(CNc1ccc(C(=O)N[C@@H](CCC(=O)O)C(=O)O)cc1)CN2` (some centres unmarked) [LV, calcium salt of 5-formyl-5,6,7,8-tetrahydrofolic acid], in assay [1] (LV added to 5-FU), the overall response rate entry was “over 20%”. For the same compound, the response rate in assay [2] (LV added to 5-FU) is reported as 21%.

Take `Nc1nc2c(c(=O)[nH]1)N1CN(c3ccc(C(=O)N[C@@H](CCC(=O)O)C(=O)O)cc3)C[C@H]1CN2` [6R-MTHF, [6R]-5,10-methylene tetrahydrofolate]: the tumor response entry was “stable disease” in assay [3] (Example 2 patient, second-line, 8-week treatment period); “partial response and no progression” in assay [3] (Example 3 patient, second-line, after 8 weeks); “partial response and no progression” in assay [3] (Example 3 patient, second-line, after 16 weeks); “no progression” in assay [3] (Example 3 patient, second-line, between 16 and 24 weeks); “stable disease” in assay [3] (Example 4 patient, second-line, 8-week treatment period); “no progression” in assay [3] (Example 4 patient, second-line, through 24 weeks). Moreover, the tumor response result in assay [3] (Example 6 patient, second-line, 8-week treatment period) is “stable disease”; in assay [3] (Example 6 patient, second-line, through 16 weeks), “stable disease and no progression”; in assay [3] (Example 7 patient, second-line, 8-week treatment period) it was “stable disease and no progression”; in assay [3] (Example 7 patient, second-line, through 16 weeks) it was “no progression”; in assay [3] (Example 8 patient, first-line, 8-week treatment period), “stable disease and no progression”; in assay [3] (Example 8 patient, first-line, through 16 weeks), “stable disease and no progression”. Further, the tumor response result was “stable disease and no progression” in assay [3] (Example 9 patient, second-line, 8-week treatment period); “stable disease and no progression” in assay [3] (Example 9 patient, second-line, 16-week treatment period); “stable disease and no progression” in assay [3] (Example 10 patient, second-line, 8-week treatment period); “stable disease and no progression” in assay [3] (Example 10 patient, second-line, 16-week treatment period); “stable disease” in assay [3] (Example 12 patient, second-line, 8-week treatment period). Further, the “size of lesions (CT)” value in assay [3] (Example 2 patient, second-line, baseline 25, 13 and 12 mm (abdomen), after 8 weeks (CT at 10 weeks plus 2 days)) is listed as “unchanged in size”. The size of lesion result was “unchanged in size” in assay [3] (Example 3 patient, second-line, 9 mm lesion, between 16 and 24 weeks); “unchanged in size” in assay [3] (Example 4 patient, second-line, baseline 35 mm (liver), after 8 weeks); “unchanged in size” in assay [3] (Example 4 patient, second-line, baseline 35 mm (liver), after 16 and 24 weeks); 96 mm in assay [3] (Example 5 patient, second-line, baseline 80 mm (liver), after 8 weeks); “unchanged in size” in assay [3] (Example 6 patient, second-line, 41 mm lesion (baseline 44 mm), after 16 weeks); 41 mm in assay [3] (Example 6 patient, second-line, baseline 44 mm (liver), after 8 weeks). Besides, the size of lesion result in assay [3] (Example 7 patient, second-line, baseline 22 mm (liver), after 8 weeks) is recorded as “unchanged in size”; in assay [3] (Example 7 patient, second-line, baseline 22 mm (liver), after additional four cycles (8 weeks)), “unchanged in size”; in assay [3] (Example 8 patient, first-line, baseline 72 mm (liver), after 8 weeks), 59 mm; in assay [3] (Example 8 patient, first-line, baseline 72 mm, 59 mm at 8 weeks, after 16 weeks) it was 53 mm; in assay [3] (Example 9 patient, second-line, baseline 57 mm (abdomen), after 8 weeks), 56 mm; in assay [3] (Example 9 patient, second-line, baseline 57 mm, 56 mm at 8 weeks, after 16 weeks), 57 mm. The size of lesion entry in assay [3] (Example 10 patient, second-line, 188 mm lesion (baseline 250 mm), after 16 weeks) is given as “unchanged in size”; in assay [3] (Example 10 patient, second-line, baseline 250 mm (abdomen), after 8 weeks), 188 mm; in assay [3] (Example 11 patient, first-line, baseline 77 mm (liver), after 8 weeks) it was 89 mm; in assay [3] (Example 12 patient, second-line, baseline 26 mm (lung), after 8 weeks) it was 30 mm. Further, the “fate of 10 mm lesion” value in assay [3] (Example 3 patient, second-line, baseline 10 and 16 mm (liver and lung), 8 weeks) is “disappearance”. The “size of lesion (CT-verified)” value in assay [3] (Example 3 patient, second-line, baseline 16 mm lesion, 8 weeks) is 13 mm; in assay [3] (Example 3 patient, second-line, lesion 16 mm at baseline, 13 mm at 8 weeks, after 16 weeks), 9 mm.

On to `Nc1nc(=O)c2c([nH]1)NCC1CN(c3ccc(C(=O)N[C@@H](CCC(=O)[O-])C(=O)[O-])cc3)CN21.[Ca+2]` (stereo partly drawn) [CoFactor, (dl)-5,10,-methylenepteroyl-monoglutamate calcium salt], for which the overall response rate in assay [4] is 35%. For the same compound, in assay [5], the “clinical benefit, defined as stable disease or tumor response, proportion of patients” value is listed as 40%. In assay [6], the “efficacy and safety versus leucovorin arm” value was “no significant differences”.

Values taken from patent publication US20230116137A1, “METHODS FOR TREATING COLORECTAL AND METASTATIC COLORECTAL CANCERS” (Isofol Medical AB, priority 2017, published 2023).
